Experimental findings from PubChem BioAssay AID504539 (Broad Institute, 2011) are described below.

The assay has as its system Cell-based prion protein 5' UTR reporter, plate reader. In words: prion protein 5' UTR mRNA inhibitors – cell-based, plate reader, cherry-picked samples, dose response (AID 504539).

By AC50 is commonly meant the concentration at which the activity in the assay is half-maximal.

As for `O=C(/C=C/c1ccccc1)Nc1cccc(C(=O)O)c1`, the AC50 was 392 nM.

Regarding `Cc1nc(SCC(=O)Nc2nc3ccccc3s2)c(C#N)c(C)c1C`, the AC50 was less than 38 nM.

For the compound `CC(=O)O[C@H]1[C@H]2O[C@]23[C@@H]2CC[C@]4(O)C[C@@H](O)CC[C@]4(C)C2CC[C@]3(C)[C@H]1c1ccc(=O)oc1` (some centres not stated), the AC50 was 120 nM.

Regarding `CCOc1ccccc1C1C2=C(COC2=O)Nc2cc3c(cc21)OCO3` (configuration not stated), the AC50 was 1050 nM.

For the compound `CC(/C=C1\SC(=O)N(CCCC(=O)O)C1=O)=C\c1ccccc1`, the AC50 was 162 nM.

As to `CCOc1ccc(NC(=O)c2ccccn2)cc1`, the AC50 was 345 nM.

Consider `Nc1ncnc2c1ccn2[C@@H]1O[C@H](CO)[C@@H](O)[C@H]1O`, for which the AC50 was 164 nM.

As for `CCOC(=O)C(C)Oc1cccc2c(=O)n(CC(=O)NCc3ccccc3)ccc12` (configuration not stated), the AC50 was 919 nM.

Take `CN(NC(=O)c1ccccc1F)c1nc(C(F)(F)F)nc2ccccc12`: the half-maximal activity concentration (AC50) was 1320 nM.

For the compound `COC(=O)C12OCC34C(CC5C(C)=C(O)C(=O)CC5(C)C3C(O)C1O)OC(=O)C(OC(=O)/C=C(\C)C(C)C)C24` (configuration not stated), the AC50 is less than 38 nM.

As to `C[C@]12CCC3C(CCC4=CC(O)CC[C@@]43/C=N/O)C1(O)CCC2C1=CC(=O)OC1` (some centres not stated), the AC50 was 308 nM.

For the compound `N#Cc1c(NC(=O)CSc2ncn[nH]2)sc2c1CCCC2`, the AC50 is 303 nM.

For `Cc1ccc(CCC(=O)Nc2ncc(Cc3cccc(Cl)c3Cl)s2)o1`, the AC50 is 358 nM.

Consider `c1ccc(-c2noc(-c3ccc4ccccc4c3)n2)nc1`, for which the AC50 is 158 nM.

`COc1cc(OC)cc(-c2cc3nc(C)c(CCC(=O)O)c(C)n3n2)c1`: the AC50 was 1610 nM.

As for `CN(C)c1ccc(/C=C2\SC(=O)N(CCc3nnc(N)s3)C2=O)cc1`, the AC50 was 481 nM.

With `CCN1C/C(=C\c2cccc([N+](=O)[O-])c2)C(=O)/C(=C/c2cccc([N+](=O)[O-])c2)C1`, the half-maximal activity concentration (AC50) is 2350 nM.

Turning to `COc1ccc(OC)c(-c2nnc3n2N=C(c2ccc(OC)c(OC)c2)CS3)c1`, the half-maximal activity concentration (AC50) was 261 nM.

In the case of `CN(C)c1ccc(/C=N/Nc2cccc(C(=O)O)c2)cc1`, the AC50 is 547 nM.

Turning to `O=C(CN1C(=O)c2ccccc2S1(=O)=O)c1ccc(Cl)cc1Cl`, the AC50 was 181 nM.

As for `COc1cc(C2c3cc4c(cc3OC(NNC(N)=O)C2C)OCO4)cc(OC)c1OC` (configuration not stated), the AC50 was 822 nM.

Turning to `CN(C)c1ccc(CCc2ccc(N)cc2)cc1`, the half-maximal activity concentration (AC50) was 831 nM.

`COc1cc(C2c3cc4c(cc3C(OC3OC5COC(c6cccs6)OC5C(O)C3O)C3COC(=O)C23)OCO4)cc(OC)c1O` (configuration not stated): the concentration at half-maximal activity (AC50) is 657 nM.

`O=c1c2ccccc2sc2ccc(C#CC3(O)CCCCC3)cc12`: the AC50 was less than 38 nM.

As for `CC1CCc2c(sc(NC(=O)CSc3ncn[nH]3)c2C#N)C1` (configuration not stated), the AC50 is 257 nM.

As to `OCC1OC(n2ccc3c(NO)ncnc32)C(O)C1O` (configuration not stated), the AC50 is 189 nM.

For `O=C(CN1C(=O)c2ccccc2S1(=O)=O)c1ccc2c(c1)OCCO2`, the AC50 is 114 nM.

For `Nc1ccc(-c2cc3ccccc3c(=O)o2)cc1`, the AC50 was 467 nM.

For `CC(=O)OC1CC(OC2C(O)CC(OC3C(O)CC(OC4CCC5(C)C(CCC6C5CCC5(C)C(C7=CC(=O)OC7)C(O)CC65O)C4)OC3C)OC2C)OC(C)C1OC1OC(CO)C(O)C(O)C1O` (configuration not stated), the half-maximal activity concentration (AC50) was 370 nM.

With `CCCSc1ccc2nc(-c3ccccc3)cn2c1`, the AC50 was 487 nM.

Regarding `CCCCCN1C=CC(=C2C(=O)c3ccccc3C2=O)C=C1`, the AC50 is 248 nM.

With `COC(=O)Cc1[nH]n(-c2nc3ccccc3s2)c(=O)c1C(C)=Nc1ccc(OC)cc1`, the AC50 is 108 nM.

For the compound `Clc1ccc2nc(-c3ccccc3)nc(C(Cl)Cl)c2c1`, the AC50 was 885 nM.

As for `CC(=O)OC1CC2(O)C3CCC4CC(O)CCC4(C)C3CCC2(C)C1C1=CC(=O)OC1` (configuration not stated), the AC50 was 92 nM.

In the case of `Cc1nn(-c2ccccc2Cl)c(Cl)c1/C=N/Nc1nc2ccccc2s1`, the AC50 is less than 38 nM.

Turning to `COc1cc2c(c(OC)c1O)-c1ccc(OC)c(=O)cc1C(NC(=O)C(F)(F)F)CC2` (configuration not stated), the AC50 was 140 nM.

`COC(=O)Cc1[nH]n(-c2nc3ccccc3s2)c(=O)c1C(C)=Nc1ccc(Cl)cc1`: the AC50 is 70 nM.

Take `Cc1ccc(C(=O)n2c(N)nc3ccccc32)cc1`: the AC50 was 493 nM.

As for `Cc1ccc(N2C(=O)c3cccc4c(N)ccc(c34)C2=O)c2cccnc12`, the AC50 was 134 nM.

As to `O=C(Nc1ccc(N2CCOCC2)cc1)c1cnsn1`, the AC50 is 486 nM.

As for `COC(=O)c1ccc(Oc2cc(C)nc(-n3nc(C)cc3C)n2)cc1`, the AC50 is 536 nM.

For `CCCOc1ccc2cc(-c3ccccn3)c(=O)oc2c1`, the AC50 was 399 nM.

In the case of `COC(=O)c1ccccc1NC(=O)Cn1c(-c2nonc2N)nc2ccccc21`, the AC50 is 605 nM.

As to `N/C(=N\OCc1ccc([N+](=O)[O-])cc1)c1ccccn1`, the AC50 was 219 nM.

Regarding `CCC(C)(O)C(=O)OC1C(=O)OC2CC3C(C)=CC(=O)C(O)C3(C)C3C4(O)OCC23C1C(C)C4O` (configuration not stated), the AC50 was 178 nM.

For `Cc1ccc(-c2nnc(SCC(=O)Nc3ccccc3F)o2)cc1`, the AC50 was 284 nM.

Turning to `O=[N+]([O-])c1nn(-c2ccc3c(c2)OCCO3)n(O)c1=Nc1ccccc1`, the AC50 is 180 nM.

For `COc1cc(-c2noc(C)c2/C=C/c2ccc(OC(C)=O)cc2)cc(OC)c1OC`, the AC50 was 555 nM.

As to `CC[C@@H](C)[C@H](C(CC(=O)N1CCCC1[C@@H](OC)[C@H](C)C(=O)N[C@H](Cc1ccccc1)c1nccs1)OC)N(C)C(=O)[C@H](NC(=O)[C@@H](C(C)C)N(C)C)C(C)C` (some centres not stated), the AC50 is 117 nM.

Take `COC1C(O)C(C)OC(OC2CCC3(C)C(CCC4C3C(O)CC3(C)C(C5=CC(=O)OC5)CCC43O)C2)C1O` (configuration not stated): the AC50 is 150 nM.

For `CCCOc1ccccc1C1CC(=O)Nc2cc3c(cc21)OCCO3` (configuration not stated), the half-maximal activity concentration (AC50) was 2900 nM.

With `Cc1ccc2nc(-c3ccccc3)cn2c1`, the AC50 is 210 nM.

`N/C(=N\OC(=O)c1ccc(Cl)cc1Cl)c1ccccn1`: the half-maximal activity concentration (AC50) was 539 nM.

Consider `Cc1nn(-c2ccccc2)c2c1CC(=O)Nc1ccccc1-2`, for which the AC50 is 1960 nM.

Consider `C/C(=N\NC(=O)c1n[nH]c2c1CCC2)c1cccs1`, for which the AC50 was 401 nM.

`O=C(CN1C(=O)c2ccccc2S1(=O)=O)N1CCc2ccccc21`: the AC50 was 582 nM.

Take `COc1cc(C(=O)N2CCN(c3cccc(C)c3C)CC2)cc(OC)c1OC`: the AC50 is 1410 nM.

Turning to `COC(=O)c1c(N)sc(C(=O)NCCc2ccccc2)c1C`, the AC50 was 413 nM.

Consider `CC1(C)CC[C@]2(C(=O)n3ccnc3)CC[C@]3(C)[C@H](C(=O)C=C4[C@@]5(C)C=C(C#N)C(=O)C(C)(C)[C@@H]5CC[C@]43C)[C@@H]2C1`, for which the AC50 is 808 nM.

In the case of `CNC(=O)Oc1ccc(-c2cn3cc(C)ccc3n2)cc1`, the AC50 was 556 nM.

`CN=c1scc(-c2ccccc2F)n1/N=C/c1ccc[nH]1`: the AC50 is less than 38 nM.

As for `CC(=O)OC1C2(CC3N4C(=O)C5(CO)SSC4(CC31O)C(=O)N5C)OC(C)C(C)(C)C2=O` (configuration not stated), the concentration at half-maximal activity (AC50) is 295 nM.

On to `CC1CCN(c2ccc(-c3cccc(NC(=O)C(F)(F)F)c3)nn2)CC1`, for which the AC50 is 194 nM.

Regarding `CC1CCCN(c2ccc([N+](=O)[O-])cc2C(=O)c2ccccc2)C1` (configuration not stated), the AC50 was 1670 nM.

With `CC(C)(C)c1ccc(C(=O)Nc2ccc(CC(=O)O)cc2)o1`, the AC50 was 312 nM.

As for `Cc1cc(/C=C2\SC(=S)N(C)C2=O)c(C)n1-c1ccc(O)cc1`, the AC50 was 130 nM.

For the compound `CCOCCOC(=O)c1[nH]c2c(c1C)C(=O)CC(c1cccs1)C2` (configuration not stated), the half-maximal activity concentration (AC50) was 1700 nM.

Take `CCCOC(=O)c1[nH]c2c(c1C)C(=O)CC(c1cccs1)C2` (configuration not stated): the AC50 was 132 nM.

Regarding `O=c1c2ccccc2cnn1CCOc1ccccc1`, the AC50 was 354 nM.

For the compound `CCCC[C@@H](C)C[C@@H](C)C(=O)N(C)[C@@H](CC(C)C)C(=O)N[C@H](C(=O)N(C)[C@H](C(=O)N1C[C@@H](O)C[C@H]1C(=O)N1C(=O)C=C[C@@H]1C)C(C)C)C(C)OC(C)=O` (some centres not stated), the AC50 was less than 38 nM.

In the case of `COc1cc2c(c(OC)c1OC)-c1ccc(O)c(=O)cc1C(NC(C)=O)CC2` (configuration not stated), the AC50 is 160 nM.

For the compound `COc1ccc(-n2ncc3c(N4CCCCC4)ncnc32)cc1`, the AC50 is 661 nM.

Take `Brc1ccc(N=Nc2ccc3ccccc3n2)cc1`: the AC50 was 543 nM.

For `O=C1NC2C(O)C(O)C(O)C(O)C2c2cc3c(c(O)c21)OCO3` (configuration not stated), the AC50 is 1480 nM.

`Cc1cccc(-n2ncc3c(N(C)C4CCCCC4)ncnc32)c1`: the half-maximal activity concentration (AC50) is 796 nM.

For the compound `CN(C(=O)OC(C)(C)C)c1ccc(-c2nc3ccccc3s2)cc1`, the AC50 was less than 38 nM.

For `NC(=O)c1cc([N+](=O)[O-])ccc1NCc1ccc(N)cc1`, the AC50 is 490 nM.

In the case of `CC1=Nc2cc(C(=O)NCc3ccco3)ccc2Sc2ccc(C)cc21`, the AC50 is 1670 nM.

Regarding `COCCn1c(C)cc(C(=O)CSc2nnnn2C2CCCC2)c1C`, the AC50 is 1140 nM.

As for `CC1CCC/C=C/C2CC(O)CC2C(O)/C=C/C(=O)O1` (configuration not stated), the AC50 is 51 nM.

As for `CCOC(=O)C(C)Oc1cccc2c(=O)n(CC(=O)NCc3ccc(F)cc3)ccc12` (configuration not stated), the AC50 was 486 nM.

Consider `c1ccc(-c2noc(-c3ccc4c(c3)OCO4)n2)nc1`, for which the AC50 is 140 nM.

For the compound `CN(C)c1ccc2c(c1)OC(N)=C(C#N)C2c1cccc(F)c1` (configuration not stated), the AC50 was 179 nM.

Take `COc1cc(C(=O)N2CCN(c3ccccc3)CC2)c2ccccc2n1`: the AC50 was 574 nM.

Consider `CC(C)(O)/C=C/C(=O)C(C)(O)C1C(O)CC2(C)C3CC=C4C(C=C(O)C(=O)C4(C)C)C3(C)C(=O)CC12C` (configuration not stated), for which the AC50 is 104 nM.

As for `Cc1cc(C(=O)COC(=O)c2ccccc2O)c(C)n1Cc1cccs1`, the AC50 is 83 nM.

In the case of `CC(=O)OC1C(=O)OCC23CCC4(C)OC4C2OC2CC(OC(=O)C=CC=CC(=O)OCCC1C)C3(C)C21CO1` (configuration not stated), the AC50 was less than 38 nM.

With `C[C@H]1O[C@@H](OC2CC[C@]3(C=O)[C@H]4CC[C@]5(C)[C@@H](C6=CC(=O)OC6)CC[C@]5(O)[C@@H]4CC[C@]3(O)C2)CC2OC(C)(C)OC21` (some centres not stated), the half-maximal activity concentration (AC50) was 123 nM.

Regarding `CC(=O)OCC12CC(OC(=O)CC(C)C)C(C)=CC1OC1C(O)C(OC(C)=O)C2(C)C12CO2` (configuration not stated), the AC50 is less than 38 nM.

Turning to `NC(=O)c1cc2c3ccccc3ccn2c1-c1ccccc1`, the AC50 is 635 nM.

Take `O=C(Nc1cccc(C(=O)O)c1)Nc1ccc2c(c1)OCO2`: the AC50 was 397 nM.

Take `CC(C)CCCCCCCCCCCCC(=O)NCC(=O)NC1C(C)OC(Nc2ncnc3nc[nH]c23)C(O)C1O` (configuration not stated): the AC50 was 73 nM.
